{"source": "patent US12090179B2", "about": "“Methods of synergistic treatment of cancer” (priority 2016, dated 2024)", "key": {"[1]": {"tested_on": "mammary fat pad tumors", "type": "in vivo, BALB-neuT mice", "excerpt": "The BALB-neuT model is a genetically engineered mouse model in which mammary tumor development is driven by expression of a constitutively activated rat homolog of human epidermal growth factor receptor 2. In this model, autochthonous tumors develop over several months and are palpable in the mammary pads of female mice around 16 weeks of age. The tumors closely resemble the aggressive Her2-driven cancer found in human patients.\nBALB-neuT mice were maintained in specific pathogen free conditions and fed standard mouse chow (Harlan). Animals were cared for by the University of Minnesota's Research Animal Resources, and all animal use was approved by the University's Institutional Animal Care and Use Facility. Genotyping for the neu transgene was performed by Transnetyx on male and female pups. Breeding pairs consisted of heterozygous males and homozygous negative females. Female mice that were positive for the neu transgene were monitored for tumor development.\nThree control groups received doxorubicin alone. The first control group (302) received the maximum tolerated dose (MTD) of intravenous (IV) 5 mg/kg doxorubicin on days 0, 7, and 14. The second control group (303) received IV 2.5 mg/kg (50% reduction in MTD) doxorubicin on days 0, 7 and 14.\nOne control group (305) of mice received SalpIL2 alone. […] Another control group (306) received Salp NG.1 alone.\nFor combination therapy treatment with SalpIL2, one group of mice (307) received an oral dose of 1×10^9 cfu SalpIL2 as well as IV 1.25 mg/kg doxorubicin on day 0. Two additional doses of IV 1.25 mg/kg doxorubicin were administered on days 7 and 14. For combination therapy treatment with SalpNG.1, a first group of mice (308) received an IV dose of 2×10^6 cfu SalpNG.1 as well as IV 1.25 mg/kg doxorubicin on day 0. Two additional doses of IV 1.25 mg/kg doxorubicin were administered on days 7 and 14. A second group of mice (309) received an IV dose of 2×10^6 cfu SalpNG.1 as well as IV 2.5 mg/kg doxorubicin on day 0. Two additional doses of IV 2.5 mg/kg doxorubicin were administered on days 7 and 14."}, "[2]": {"assay": "Percent weight change as measure of toxicity in BALB-neuT mice", "type": "in vivo", "protocol": "Female BALB-neu-T mice spontaneously developed palpable mammary fat pad tumors around 16 weeks of age (approximately 50-60 mm^3). At this time (day 0), the mice typically had 1-3 palpable tumors. For each experiment, individual tumors were measured by caliper, and their volume was calculated. Individual tumor volumes were calculated as spheroid (L×W^2×0.52) and combined to give a total tumor burden measurement for each mouse. Tumor burden data was gathered weekly from day 0 to day 35. Additionally, percent weight change data was gathered weekly for each mouse from day 0 to day 35. The percent weight change was calculated based on the baseline weight of each mouse.\nVarious embodiments of method 200, described above with respect to FIG. 2, were used to treat tumors in the BALB-neuT model using combinations of attenuated S. typhimurium and the chemotherapy agent doxorubicin. A prescribed amount per cfu of the appropriate S. typhimurium strain (SalpIL2 or SalpNG.1) was administered via intravenous injection or gavage orally in 100 μL of PBS. The doxorubicin was administered intravenously via tail vein. Additionally, using the same methods of administration, a number of control groups received PBS alone, doxorubicin alone, SalpIL2 alone, or SalpNG.1 alone.\nFIG. 6 is a line graph of percent weight change versus days post-treatment in mice treated with combinations of attenuated S. typhimurium and doxorubicin compared to control groups. Weight change in mice is an accurate measure of the degree of toxicity of a chemotherapy agent. […] While the control group that received PBS (301) saw a greater than 25% increase in weight by day 30, the mice in that group died or were moribund and euthanized due to tumor growth."}, "[3]": {"conditions": "doxorubicin alone IV 1.25 mg/kg (25% of MTD) on days 0, 7, 14, group 304"}, "[4]": {"conditions": "doxorubicin alone IV 5 mg/kg (MTD) on days 0, 7, 14, group 302"}, "[5]": {"conditions": "doxorubicin alone IV 1.25 mg/kg on days 0, 7, 14, group 304"}}}
{"smiles": "COc1cccc2c1C(=O)c1c(O)c3c(c(O)c1C2=O)C[C@@](O)(C(=O)CO)C[C@@H]3O[C@H]1C[C@H](N)[C@H](O)[C@H](C)O1", "note": "[doxorubicin]", "values": [{"measurement": "tumor burden relative to the MTD doxorubicin group (302) by day 21", "setting": "[1]; [3]", "value": "almost double"}, {"measurement": "tumor burden relative to the MTD doxorubicin group (302) by day 35", "setting": "[1]; [3]", "value": "~5", "unit": "times"}, {"measurement": "tumor burden compared with groups 302 (MTD) and 304 (1.25 mg/kg)", "setting": "[1]; doxorubicin alone IV 2.5 mg/kg (50% of MTD) on days 0, 7, 14, group 303", "value": "in between"}, {"measurement": "tumor burden at day 35", "setting": "[1]; [4]", "value": "around 100 mm^3"}, {"measurement": "tumor burden compared with the other groups", "setting": "[1]; [4]", "value": "lowest"}, {"measurement": "toxicity judged from weight change", "setting": "[2]; [5]", "value": "non-toxic"}, {"measurement": "weight change by day 14", "setting": "[2]; [5]", "value": "did not show any weight loss"}, {"measurement": "weight gain by day 35", "setting": "[2]; [5]", "value": "< 10", "unit": "%"}, {"measurement": "toxicity judged from weight change", "setting": "[2]; [4]", "value": "significant toxicity"}, {"measurement": "weight loss by day 14", "setting": "[2]; [4]", "value": "greater than 20%"}, {"measurement": "weight loss by day 35", "setting": "[2]; [4]", "value": "~10", "unit": "%"}]}
